{
  "source": "patent US6503881B2",
  "about": "(priority 1996, dated 2003)",
  "key": {"[1]": {"test_system": "inherently resistant microorganisms"}, "[2]": {"test_system": "microorganisms with acquired resistance"}, "[3]": {"conditions": "E. coli ECO3, pair Mupirocin / MBI 11D18CN"}, "[4]": {"conditions": "S. aureus 19 MRSA, pair Piperacillin / MBI 11D18CN"}},
  "note": "Where two headings read alike, the source gives them in different places.",
  "data": [
    {"substance": "W R I W K P K W R L P K W [MBI 11D18CN]", "values": [
      {"measurement": "FIC", "setting": "[1]", "value": 0.56},
      {"measurement": "MIC Alone", "setting": "[1]", "value": 32, "unit": "µg/mL"},
      {"measurement": "MIC in combination", "setting": "[1]", "value": 16, "unit": "µg/mL"},
      {"measurement": "FIC", "setting": "[1]; [3]", "value": 0.26},
      {"measurement": "MIC Alone", "setting": "[1]; [3]", "value": 4, "unit": "µg/mL"},
      {"measurement": "MIC in combination", "setting": "[1]; [3]", "value": 1, "unit": "µg/mL"},
      {"measurement": "FIC", "setting": "[1]; [4]", "value": 0.52},
      {"measurement": "MIC Alone", "setting": "[1]; [4]", "value": 4, "unit": "µg/mL"},
      {"measurement": "MIC in combination", "setting": "[1]; [4]", "value": 2, "unit": "µg/mL"},
      {"measurement": "Peptide MIC + Tobramycin", "setting": "[2]; A. baumannii ABI001", "value": 4, "unit": "µg/mL"},
      {"measurement": "Tobramycin MIC + Peptide", "setting": "[2]; A. baumannii ABI001", "value": 4, "unit": "µg/mL"},
      {"measurement": "Peptide MIC Alone", "setting": "[2]; A. baumannii ABI001 (7. Tobramycin)", "value": 64, "unit": "µg/mL"},
      {"measurement": "Peptide MIC + Tobramycin", "setting": "[2]; A. baumannii ABI002", "value": 0.5, "unit": "µg/mL"},
      {"measurement": "Tobramycin MIC + Peptide", "setting": "[2]; A. baumannii ABI002", "value": 4, "unit": "µg/mL"},
      {"measurement": "Peptide MIC Alone", "setting": "[2]; A. baumannii ABI002 (7. Tobramycin)", "value": 16, "unit": "µg/mL"},
      {"measurement": "Peptide MIC + Piperacillin", "setting": "[2]; A. calcoaceticus 3", "value": 8, "unit": "µg/mL"},
      {"measurement": "Piperacillin MIC + Peptide", "setting": "[2]; A. calcoaceticus 3", "value": 8, "unit": "µg/mL"},
      {"measurement": "Peptide MIC Alone", "setting": "[2]; A. calcoaceticus 3 (6. Piperacillin)", "value": 32, "unit": "µg/mL"},
      {"measurement": "Peptide MIC + Piperacillin", "setting": "[2]; E. cloacae 9", "value": 16, "unit": "µg/mL"},
      {"measurement": "Piperacillin MIC + Peptide", "setting": "[2]; E. cloacae 9", "value": 16, "unit": "µg/mL"},
      {"measurement": "Peptide MIC Alone", "setting": "[2]; E. cloacae 9 (6. Piperacillin)", "value": 64, "unit": "µg/mL"},
      {"measurement": "Peptide MIC + Piperacillin", "setting": "[2]; E. cloacae 10", "value": 16, "unit": "µg/mL"},
      {"measurement": "Piperacillin MIC + Peptide", "setting": "[2]; E. cloacae 10", "value": 16, "unit": "µg/mL"},
      {"measurement": "Peptide MIC Alone", "setting": "[2]; E. cloacae 10 (6. Piperacillin)", "value": 32, "unit": "µg/mL"},
      {"measurement": "Peptide MIC + Vancomycin", "setting": "[2]; E. faecalis EFS003", "value": 32, "unit": "µg/mL"},
      {"measurement": "Vancomycin MIC + Peptide", "setting": "[2]; E. faecalis EFS003", "value": 2, "unit": "µg/mL"},
      {"measurement": "Peptide MIC Alone", "setting": "[2]; E. faecalis EFS003 (8. Vancomycin)", "value": 64, "unit": "µg/mL"},
      {"measurement": "Peptide MIC + Vancomycin", "setting": "[2]; E. faecalis EFS007", "value": 8, "unit": "µg/mL"},
      {"measurement": "Vancomycin MIC + Peptide", "setting": "[2]; E. faecalis EFS007", "value": 1, "unit": "µg/mL"},
      {"measurement": "Peptide MIC Alone", "setting": "[2]; E. faecalis EFS007 (8. Vancomycin)", "value": 16, "unit": "µg/mL"},
      {"measurement": "Peptide MIC + Vancomycin", "setting": "[2]; E. faecalis EFS009", "value": 4, "unit": "µg/mL"},
      {"measurement": "Vancomycin MIC + Peptide", "setting": "[2]; E. faecalis EFS009", "value": 2, "unit": "µg/mL"},
      {"measurement": "Peptide MIC Alone", "setting": "[2]; E. faecalis EFS009 (8. Vancomycin)", "value": 8, "unit": "µg/mL"},
      {"measurement": "Peptide MIC + Vancomycin", "setting": "[2]; E. faecium EFM004", "value": 4, "unit": "µg/mL"},
      {"measurement": "Vancomycin MIC + Peptide", "setting": "[2]; E. faecium EFM004", "value": 0.5, "unit": "µg/mL"},
      {"measurement": "Peptide MIC Alone", "setting": "[2]; E. faecium EFM004 (8. Vancomycin)", "value": 8, "unit": "µg/mL"},
      {"measurement": "Peptide MIC + Vancomycin", "setting": "[2]; E. faecium EFM007", "value": 4, "unit": "µg/mL"},
      {"measurement": "Vancomycin MIC + Peptide", "setting": "[2]; E. faecium EFM007", "value": 0.5, "unit": "µg/mL"},
      {"measurement": "Peptide MIC Alone", "setting": "[2]; E. faecium EFM007 (8. Vancomycin)", "value": 8, "unit": "µg/mL"},
      {"measurement": "Peptide MIC + Vancomycin", "setting": "[2]; E. faecium EFM009", "value": 4, "unit": "µg/mL"},
      {"measurement": "Vancomycin MIC + Peptide", "setting": "[2]; E. faecium EFM009", "value": 1, "unit": "µg/mL"},
      {"measurement": "Peptide MIC Alone", "setting": "[2]; E. faecium EFM009 (8. Vancomycin)", "value": 8, "unit": "µg/mL"},
      {"measurement": "Peptide MIC + Vancomycin", "setting": "[2]; E. faecium EFM010", "value": 4, "unit": "µg/mL"},
      {"measurement": "Vancomycin MIC + Peptide", "setting": "[2]; E. faecium EFM010", "value": 1, "unit": "µg/mL"},
      {"measurement": "Peptide MIC Alone", "setting": "[2]; E. faecium EFM010 (8. Vancomycin)", "value": 8, "unit": "µg/mL"},
      {"measurement": "Peptide MIC + Piperacillin", "setting": "[2]; P. aeruginosa 23", "value": 4, "unit": "µg/mL"},
      {"measurement": "Piperacillin MIC + Peptide", "setting": "[2]; P. aeruginosa 23", "value": 64, "unit": "µg/mL"},
      {"measurement": "Peptide MIC Alone", "setting": "[2]; P. aeruginosa 23 (6. Piperacillin)", "value": 64, "unit": "µg/mL"},
      {"measurement": "Peptide MIC + Tobramycin", "setting": "[2]; P. aeruginosa PA032", "value": 32, "unit": "µg/mL"},
      {"measurement": "Tobramycin MIC + Peptide", "setting": "[2]; P. aeruginosa PA032", "value": 4, "unit": "µg/mL"},
      {"measurement": "Peptide MIC Alone", "setting": "[2]; P. aeruginosa PA032 (7. Tobramycin)", "value": 64, "unit": "µg/mL"},
      {"measurement": "Ciprofloxacin MIC + Peptide", "setting": "[2]; P. aeruginosa PA77", "value": 0.5, "unit": "µg/mL"},
      {"measurement": "Peptide MIC + Ciprofloxacin", "setting": "[2]; P. aeruginosa PA77", "value": 32, "unit": "µg/mL"},
      {"measurement": "Peptide MIC Alone", "setting": "[2]; P. aeruginosa PA77 (3. Ciprofloxacin)", "value": 128, "unit": "µg/mL"},
      {"measurement": "Peptide MIC", "setting": "[2]; S. aureus MRSA 9, pair Mupirocin / MBI 11D18CN", "value": 2, "unit": "µg/mL"},
      {"measurement": "Peptide MIC + Tobramycin", "setting": "[2]; S. epidermidis SE080", "value": 1, "unit": "µg/mL"},
      {"measurement": "Tobramycin MIC + Peptide", "setting": "[2]; S. epidermidis SE080", "value": 4, "unit": "µg/mL"},
      {"measurement": "Peptide MIC Alone", "setting": "[2]; S. epidermidis SE080 (7. Tobramycin)", "value": 2, "unit": "µg/mL"},
      {"measurement": "Peptide MIC + Piperacillin", "setting": "[2]; S. maltophilia 2", "value": 8, "unit": "µg/mL"},
      {"measurement": "Piperacillin MIC + Peptide", "setting": "[2]; S. maltophilia 2", "value": 16, "unit": "µg/mL"},
      {"measurement": "Peptide MIC Alone", "setting": "[2]; S. maltophilia 2 (6. Piperacillin)", "value": 32, "unit": "µg/mL"},
      {"measurement": "Peptide MIC + Piperacillin", "setting": "[2]; S. maltophilia 14", "value": 8, "unit": "µg/mL"},
      {"measurement": "Piperacillin MIC + Peptide", "setting": "[2]; S. maltophilia 14", "value": 16, "unit": "µg/mL"},
      {"measurement": "Peptide MIC Alone", "setting": "[2]; S. maltophilia 14 (6. Piperacillin)", "value": 16, "unit": "µg/mL"},
      {"measurement": "Peptide MIC + Tobramycin", "setting": "[2]; S. maltophilia SMA027", "value": 16, "unit": "µg/mL"},
      {"measurement": "Tobramycin MIC + Peptide", "setting": "[2]; S. maltophilia SMA027", "value": 4, "unit": "µg/mL"},
      {"measurement": "Peptide MIC Alone", "setting": "[2]; S. maltophilia SMA027 (7. Tobramycin)", "value": ">128", "unit": "µg/mL"},
      {"measurement": "Peptide MIC + Tobramycin", "setting": "[2]; S. maltophilia SMA029", "value": 8, "unit": "µg/mL"},
      {"measurement": "Tobramycin MIC + Peptide", "setting": "[2]; S. maltophilia SMA029", "value": 2, "unit": "µg/mL"},
      {"measurement": "Peptide MIC Alone", "setting": "[2]; S. maltophilia SMA029 (7. Tobramycin)", "value": 32, "unit": "µg/mL"},
      {"measurement": "Peptide MIC + Piperacillin", "setting": "[2]; S. marcescens 1", "value": 4, "unit": "µg/mL"},
      {"measurement": "Piperacillin MIC + Peptide", "setting": "[2]; S. marcescens 1", "value": 8, "unit": "µg/mL"},
      {"measurement": "Peptide MIC Alone", "setting": "[2]; S. marcescens 1 (6. Piperacillin)", "value": ">128", "unit": "µg/mL"},
      {"measurement": "FIC", "setting": "[2]; peptide + Ciprofloxacin, P. aeruginosa PA77", "value": 0.50},
      {"measurement": "FIC", "setting": "[2]; peptide + Piperacillin, A. calcoaceticus 3", "value": 0.38},
      {"measurement": "FIC", "setting": "[2]; peptide + Piperacillin, E. cloacae 9", "value": 0.31},
      {"measurement": "FIC", "setting": "[2]; peptide + Piperacillin, E. cloacae 10", "value": 0.56},
      {"measurement": "FIC", "setting": "[2]; peptide + Piperacillin, P. aeruginosa 23", "value": 0.56},
      {"measurement": "FIC", "setting": "[2]; peptide + Piperacillin, S. maltophilia 2", "value": 0.50},
      {"measurement": "FIC", "setting": "[2]; peptide + Piperacillin, S. maltophilia 14", "value": 0.63},
      {"measurement": "FIC", "setting": "[2]; peptide + Piperacillin, S. marcescens 1", "value": 0.14},
      {"measurement": "FIC", "setting": "[2]; peptide + Tobramycin, A. baumannii ABI001", "value": 0.31},
      {"measurement": "FIC", "setting": "[2]; peptide + Tobramycin, A. baumannii ABI002", "value": 9.53},
      {"measurement": "FIC", "setting": "[2]; peptide + Tobramycin, P. aeruginosa PA032", "value": 11.00},
      {"measurement": "FIC", "setting": "[2]; peptide + Tobramycin, S. epidermidis SE080", "value": 0.75},
      {"measurement": "FIC", "setting": "[2]; peptide + Tobramycin, S. maltophilia SMA027", "value": 9.19},
      {"measurement": "FIC", "setting": "[2]; peptide + Tobramycin, S. maltophilia SMA029", "value": 0.27},
      {"measurement": "FIC", "setting": "[2]; peptide + Vancomycin, E. faecalis EFS003", "value": 0.75},
      {"measurement": "FIC", "setting": "[2]; peptide + Vancomycin, E. faecalis EFS007", "value": 0.63},
      {"measurement": "FIC", "setting": "[2]; peptide + Vancomycin, E. faecalis EFS009", "value": 0.75},
      {"measurement": "FIC", "setting": "[2]; peptide + Vancomycin, E. faecium EFM004", "value": 0.50},
      {"measurement": "FIC", "setting": "[2]; peptide + Vancomycin, E. faecium EFM007", "value": 0.50},
      {"measurement": "FIC", "setting": "[2]; peptide + Vancomycin, E. faecium EFM009", "value": 0.52},
      {"measurement": "FIC", "setting": "[2]; peptide + Vancomycin, E. faecium EFM010", "value": 0.59}
    ]}
  ]
}
